Measured values as given in patent US6355799B1, “Substituted benzene compounds, process for their preparation, and herbicidal and defoliant compositions containing them” (ISK Americas Incorporated, priority 1997, dated 2002).

Legend:
Assay type in all cases: in vivo
[1] = system: redroot pigweed (Amaranthus retroflexus, AMARE); experiment: Pre-emerge test, greenhouse herbicide activity screening; details: rating scale 0-100, 14 days after application
Outline: (§1)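 Sandy loam pots; pre-emerge: sown 1 d pre-spray, surface-watered after, then bottom-watered. Post-emerge: sown 8–21 d before, 2–3 leaf stage, + 0.25% v/v NIS, bottom-watered. Acetone, 187 l/ha track spray, 15–1000 g ai/ha. 0–100 injury score, day 14.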

[2] = system: upland rice (Oryza sp., var. Tebonnet, RICE); experiment: Post-emerge test, crop safety; details: rating scale 0-100 (0 no damage, 100 complete death), 14 days after application
Outline: (§2)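 Rating: 0–100 visual injury, 14 DAA. Application: acetone, 187 l/ha, 15–1000 g ai/ha, flat-fan track sprayer with nozzle 40–45 cm above soil or canopy. Post-emerge runs used 0.25% v/v surfactant on 2–3 leaf plants.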

[3] = system: field corn (Zea mays L., var. Dekalb 535, CORN); experiment: Post-emerge test, crop safety; details: rating scale 0-100 (0 no damage, 100 complete death), 14 days after application
Outline: as §2

[4] = system: sicklepod (Cassia obtusifolia, CASOB); experiment: Pre-emerge test, greenhouse herbicide activity screening; details: rating scale 0-100, 14 days after application
Outline: (§3)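 Compounds in acetone were track-sprayed at 15–1000 g ai/ha: pre-emergence onto soil sown the previous day, then top-watered to incorporate and later bottom-watered; post-emergence onto 2–3 leaf plants with 0.25% v/v surfactant, bottom-watered only. Ratings on a 0–100 phytotoxicity scale were taken at day 14.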

[5] = system: velvetleaf (Abutilon theophrasti, ABUTH); experiment: as above; details: rating scale 0-100, 14 days after application
Outline: as §3

[6] = system: green foxtail (Setaria viridis, SETVI); experiment: as above; details: rating scale 0-100, 14 days after application
Outline: as §3

[7] = system: johnsongrass (Sorghum halepense, SORHA); experiment: as above; details: rating scale 0-100, 14 days after application
Outline: as §3

[8] = system: barnyardgrass (Echinochloa crus-galli, ECHCG); experiment: as above; details: rating scale 0-100, 14 days after application
Outline: as §3

[9] = system: ivyleaf morningglory (Ipomoea hederacea, IPOHE); experiment: as above; details: rating scale 0-100, 14 days after application
Outline: as §3

[10] = system: large crabgrass (Digitaria sanguinalis, DIGSA); experiment: as above; details: rating scale 0-100, 14 days after application
Outline: as §3

[11] = system: lambsquarters (Chenopodium album, CHEAL); experiment: as above; details: rating scale 0-100, 14 days after application
Outline: as §3

[12] = system: sicklepod (Cassia obtusifolia, CASOB); experiment: Post-emerge test, greenhouse herbicide activity screening; details: rating scale 0-100 (0 no damage, 100 complete death), 14 days after application
Outline: as §3

[13] = system: velvetleaf (Abutilon theophrasti, ABUTH); experiment: as above; details: rating scale 0-100 (0 no damage, 100 complete death), 14 days after application
Outline: as §3

[14] = system: redroot pigweed (Amaranthus retroflexus, AMARE); experiment: as above; details: rating scale 0-100 (0 no damage, 100 complete death), 14 days after application
Outline: as §3

[15] = system: common ragweed (Ambrosia artemisizfolia L., AMBEL); experiment: as above; details: rating scale 0-100 (0 no damage, 100 complete death), 14 days after application
Outline: as §3

[16] = system: green foxtail (Setaria viridis, SETVI); experiment: as above; details: rating scale 0-100 (0 no damage, 100 complete death), 14 days after application
Outline: as §3

[17] = system: johnsongrass (Sorghum halepense, SORHA); experiment: as above; details: rating scale 0-100 (0 no damage, 100 complete death), 14 days after application
Outline: as §3

[18] = system: barnyardgrass (Echinochloa crus-galli, ECHCG); experiment: as above; details: rating scale 0-100 (0 no damage, 100 complete death), 14 days after application
Outline: as §3

[19] = system: ivyleaf morningglory (Ipomoea hederacea, IPOHE); experiment: as above; details: rating scale 0-100 (0 no damage, 100 complete death), 14 days after application
Outline: as §3

[20] = system: large crabgrass (Digitaria sanguinalis, DIGSA); experiment: as above; details: rating scale 0-100 (0 no damage, 100 complete death), 14 days after application
Outline: as §3

[21] = system: lambsquarters (Chenopodium album, CHEAL); experiment: as above; details: rating scale 0-100 (0 no damage, 100 complete death), 14 days after application
Outline: as §3

[22] = system: upland rice (Oryza sp., var. Tebonnet, RICE); experiment: Pre-emerge test, crop safety; details: rating scale 0-100, 14 days after application
Outline: as §1

[23] = system: field corn (Zea mays L., var. Dekalb 535, CORN); experiment: Pre-emerge test, crop safety; details: 63 g ai/ha; rating scale 0-100, 14 days after application
Outline: as §1

COCCOC(=O)C(Cl)Cc1c(OC)c(Cl)cc(F)c1-n1c(=O)cc(C(F)(F)F)n(C)c1=O (stereo not drawn) [14-25]
95: Post-emerge Herbicidal Activity, phytotoxicity rating AMARE ([14]; Rate 63 g ai/ha) | Post-emerge Herbicidal Activity, phytotoxicity rating SORHA ([17]; Rate 250 g ai/ha) | Post-emerge Herbicidal Activity, phytotoxicity rating DIGSA ([20]; Rate 63 g ai/ha) | Pre-emerge phytotoxicity rating, crop damage CORN [23]
70: Pre-emerge herbicidal activity, phytotoxicity rating IPOHE ([9]; 63 g ai/ha) | Pre-emerge herbicidal activity, phytotoxicity rating DIGSA ([10]; 63 g ai/ha) | Post-emerge Herbicidal Activity, phytotoxicity rating IPOHE ([19]; Rate 63 g ai/ha)
50: Post-emerge phytotoxicity rating RICE (crop damage) ([2]; Rate 250 g ai/ha) | Pre-emerge herbicidal activity, phytotoxicity rating CASOB ([4]; 63 g ai/ha) | Post-emerge Herbicidal Activity, phytotoxicity rating CASOB ([12]; Rate 63 g ai/ha) | Post-emerge Herbicidal Activity, phytotoxicity rating SETVI ([16]; Rate 63 g ai/ha)
10: Post-emerge phytotoxicity rating RICE (crop damage) ([2]; Rate 63 g ai/ha)
80: Pre-emerge herbicidal activity, phytotoxicity rating SORHA ([7]; 63 g ai/ha) | Pre-emerge herbicidal activity, phytotoxicity rating ECHCG ([8]; 63 g ai/ha) | Post-emerge Herbicidal Activity, phytotoxicity rating CASOB ([12]; Rate 250 g ai/ha) | Post-emerge Herbicidal Activity, phytotoxicity rating SETVI ([16]; Rate 250 g ai/ha) | Post-emerge Herbicidal Activity, phytotoxicity rating CHEAL ([21]; Rate 63 g ai/ha)
100: Pre-emerge herbicidal activity, phytotoxicity rating AMARE ([1]; 63 g ai/ha) | Pre-emerge herbicidal activity, phytotoxicity rating AMARE ([1]; 250 g ai/ha) | Post-emerge phytotoxicity rating CORN (crop damage) ([3]; Rate 63 g ai/ha) | Post-emerge phytotoxicity rating CORN (crop damage) ([3]; Rate 250 g ai/ha) | Pre-emerge herbicidal activity, phytotoxicity rating CASOB ([4]; 250 g ai/ha) | Pre-emerge herbicidal activity, phytotoxicity rating ABUTH ([5]; 63 g ai/ha) | Pre-emerge herbicidal activity, phytotoxicity rating ABUTH ([5]; 250 g ai/ha) | Pre-emerge herbicidal activity, phytotoxicity rating SETVI ([6]; 250 g ai/ha) | Pre-emerge herbicidal activity, phytotoxicity rating SORHA ([7]; 250 g ai/ha) | Pre-emerge herbicidal activity, phytotoxicity rating ECHCG ([8]; 250 g ai/ha) | Pre-emerge herbicidal activity, phytotoxicity rating IPOHE ([9]; 250 g ai/ha) | Pre-emerge herbicidal activity, phytotoxicity rating DIGSA ([10]; 250 g ai/ha) | Pre-emerge herbicidal activity, phytotoxicity rating CHEAL ([11]; 63 g ai/ha) | Pre-emerge herbicidal activity, phytotoxicity rating CHEAL ([11]; 250 g ai/ha) | Post-emerge Herbicidal Activity, phytotoxicity rating ABUTH ([13]; Rate 63 g ai/ha) | Post-emerge Herbicidal Activity, phytotoxicity rating ABUTH ([13]; Rate 250 g ai/ha) | Post-emerge Herbicidal Activity, phytotoxicity rating AMARE ([14]; Rate 250 g ai/ha) | Post-emerge Herbicidal Activity, phytotoxicity rating AMBEL ([15]; Rate 63 g ai/ha) | Post-emerge Herbicidal Activity, phytotoxicity rating AMBEL ([15]; Rate 250 g ai/ha) | Post-emerge Herbicidal Activity, phytotoxicity rating ECHCG ([18]; Rate 63 g ai/ha) | Post-emerge Herbicidal Activity, phytotoxicity rating ECHCG ([18]; Rate 250 g ai/ha) | Post-emerge Herbicidal Activity, phytotoxicity rating IPOHE ([19]; Rate 250 g ai/ha) | Post-emerge Herbicidal Activity, phytotoxicity rating DIGSA ([20]; Rate 250 g ai/ha) | Post-emerge Herbicidal Activity, phytotoxicity rating CHEAL ([21]; Rate 250 g ai/ha) | Pre-emerge phytotoxicity rating, crop damage RICE ([22]; 250 g ai/ha)
40: Post-emerge Herbicidal Activity, phytotoxicity rating SORHA ([17]; Rate 63 g ai/ha)
90: Pre-emerge herbicidal activity, phytotoxicity rating SETVI ([6]; 63 g ai/ha) | Pre-emerge phytotoxicity rating, crop damage RICE ([22]; 63 g ai/ha)
